The NIST ThermoML archive (doi:10.1021/acs.jced.6b00357)
Several values for one entry are separate records, joined by “and”; a condition that tells them apart may be missing. Identical values can stand only once. ± gives the expanded uncertainty stated by the source.

Conditions: Liquid, Transpiration method

vapor or sublimation pressure (298.15 K): 3.178 ± 0.13 kPa
SMILES: O [water]
vapor or sublimation pressure (293.15 K): 2.319 ± 0.094 kPa and 2.32 ± 0.094 kPa and 2.315 ± 0.094 kPa
